The values that follow come from patent US20050124498A1, “Halobenzyl substituted phenylaceto esters and amides and use thereof for prevention of harmful organisms” (priority 2002, published 2005).

Data set [1] relates to apple mildew pathogen Podosphaera leucotricha. In words: Podosphaera test (apple)/protective. The note with it: 240 h, protective, application rate 100 g/ha, evaluation 10 days after inoculation, read-out: efficacy. The format is in vivo. The method, then:
(§1) Podosphaera test (apple)/protective [table] To produce a suitable preparation of active compound, 1 part by weight of active compound is mixed with the stated amounts of solvent and emulsifier, and the concentrate is diluted with water to the desired concentration. To test for protective activity, young plants are sprayed with the preparation of active compound at the stated application rate. After the spray coating has dried on, the plants are inoculated with an aqueous spore suspension of the apple mildew pathogen Podosphaera leucotricha. The plants are then placed in a greenhouse at about 23° C. and about 70% relative atmospheric humidity.

Data set [2] concerns apple scab pathogen Venturia inaequalis. In words: Venturia test (apple)/protective. The format is in vivo. The note with it: 240 h, protective, application rate 100 g/ha, evaluation 10 days after inoculation, read-out: efficacy. The method, then:
Venturia test (apple)/protective […] To produce a suitable preparation of active compound, 1 part by weight of active compound is mixed with the stated amounts of solvent and emulsifier, and the concentrate is diluted with water to the desired concentration. To test for protective activity, young plants are sprayed with the preparation of active compound at the stated application rate. After the spray coating has dried on, the plants are inoculated with an aqueous conidia suspension of the apple scab pathogen Venturia inaequalis and then remain in an incubation cabin at about 20° C. and 100% relative atmospheric humidity for 1 day. The plants are then placed in a greenhouse at about 21° C. and a relative atmospheric humidity of about 90%.

The test system of data set [3] is Phytophthora infestans. In words: whole plant or invertebrate. The format is in vivo. The note with it: in Solanum lycopersicum, 72 h, read-out: efficacy.
Data set [4] relates to Sphaerotheca fuliginea. In words: Sphaerotheca test (cucumber)/protective. The format is in vivo. The note with it: Podosphaera fuliginea, 168 h, protective, application rate 100 g/ha, evaluation 7 days after inoculation, read-out: efficacy. The method, then: as §1, with “Sphaerotheca” for “Podosphaera”, “(cucumber)/protective” for “(apple)/protective”, “Sphaerotheca fuliginea.” for “the apple mildew pathogen Podosphaera leucotricha.”

Data set [5] deals with Leptosphaeria nodorum. Briefly: Leptosphaeria nodorum test (wheat)/protective. The format is in vivo. The note with it: Parastagonospora nodorum, 240 h, protective, application rate 500 g/ha, evaluation 10 days after inoculation, read-out: efficacy. The method, then:
Leptosphaeria nodorum test (wheat)/protective [table] To produce a suitable preparation of active compound, 1 part by weight of active compound is mixed with the stated amounts of solvent and emulsifier, and the concentrate is diluted with water to the desired concentration. To test for protective activity, young plants are sprayed with the preparation of active compound at the stated application rate. After the spray coating has dried on, the plants are sprayed with a spore suspension of Leptosphaeria nodorum. The plants remain in an incubation cabin at 20° C. and 100% relative atmospheric humidity for 48 hours. The plants are placed in a greenhouse at a temperature of about 15° C. and a relative atmospheric humidity of 80%.

Data set [6] is described as follows: physchem.
Data set [7] concerns Erysiphe graminis f.sp. hordei. Briefly: Erysiphe test (barley)/protective. The note with it: Blumeria graminis, 168 h, protective, application rate 500 g/ha, evaluation 7 days after inoculation, read-out: efficacy. The format is in vivo. The method, then: Erysiphe test (barley)/protective [table] To produce a suitable preparation of active compound, 1 part by weight of active compound is mixed with the stated amounts of solvent and emulsifier, and the concentrate is diluted with water to the desired concentration. To test for protective activity, young plants are sprayed with the preparation of active compound at the stated application rate. After the spray coating has dried on, the plants are dusted with spores of Erysiphe graminis f.sp. hordei. The plants are placed in a greenhouse at a temperature of about 20° C. and a relative atmospheric humidity of about 80% to promote the development of mildew pustules.

The structures appear in SMILES notation. Bounds are passed on as bounds.

As a reminder, the chromatographic logP is a lipophilicity value derived from retention on a column. A lower chromatographic logP goes with a more hydrophilic compound. Regarding `CNC(=O)/C(=N/OC)c1c(F)cccc1Oc1ncnc(Oc2cccc(Cl)c2C)c1F` [Example 45], the pest or weed control at 100 g/ha is at least 82% in data set [1], at least 97% in data set [2], at least 86% in data set [3] and at least 98% in data set [4]. In addition, the pest or weed control at 500 g/ha in data set [5] was at least 98%. This compound also had a chromatographic logP in data set [6] (logP) of 3.6.

For the compound `CNC(=O)/C(=N/OC)c1ccc(F)cc1Oc1ncnc(Oc2cccc(Cl)c2C)c1F` [Example 10], in data set [7], the pest or weed control at 500 g/ha is at least 98%. The chromatographic logP in data set [6] (logP) was 3.62.

Regarding `CNC(=O)/C(=N/OC)c1ccc(F)cc1Oc1ncnc(Oc2ccccc2C(F)(F)F)c1F` [Example 31], the pest or weed control at 100 g/ha in data set [1] is at least 82%; in data set [2], at least 97%; in data set [3], at least 86%; in data set [4], at least 98%. The pest or weed control at 500 g/ha in data set [5] is at least 98%. For the same compound, the chromatographic logP in data set [6] (logP) worked out at 3.26.

In the case of `CNC(=O)/C(=N/OC)c1c(F)cccc1CO/N=C(\C)c1cccc(C(F)(F)F)c1` [Example 51], the pest or weed control at 100 g/ha is at least 82% in data set [1], at least 97% in data set [2], at least 86% in data set [3] and at least 98% in data set [4]. For the same compound, the pest or weed control at 500 g/ha in data set [7] is at least 98%. In addition, the chromatographic logP in data set [6] (logP) came out at 3.71.

Turning to `CO/N=C(/C(=O)OC)c1c(F)cccc1CO/N=C(\C)c1cccc(C(F)(F)F)c1` [Example 50], the pest or weed control at 100 g/ha is at least 82% in data set [1], at least 97% in data set [2], at least 86% in data set [3] and at least 98% in data set [4]. Also, in data set [7], the pest or weed control at 500 g/ha is at least 98%. In addition, the chromatographic logP in data set [6] (logP) stood at 4.27.

As to `CO/N=C(/C(=O)OC)c1c(F)cccc1Oc1ncnc(Oc2ccccc2Cl)c1F` [Example 14], the pest or weed control at 100 g/ha in data set [1] is at least 82%; in data set [2], at least 97%; in data set [3], at least 86%; in data set [4], at least 98%. For the same compound, the pest or weed control at 500 g/ha in data set [7] was at least 98%. Moreover, in data set [6] (logP), the chromatographic logP worked out at 3.73.

Consider `CNC(=O)/C(=N/OC)c1c(F)cccc1Oc1cc(Oc2cccc(Cl)c2C)ncn1` [Example 57], for which the pest or weed control at 100 g/ha in data set [1] was at least 82%; in data set [2] it was at least 97%; in data set [3] it was at least 86%; in data set [4], at least 98%. In data set [5], the pest or weed control at 500 g/ha is at least 98%. In data set [6] (logP), this compound showed a chromatographic logP of 3.24.

With `CNC(=O)/C(=N/OC)c1c(F)cccc1Oc1ccccc1` [Example 4, 2-(2-fluoro-6-phenoxyphenyl)-2-methoxyimino-N-methylacetamide], the pest or weed control at 500 g/ha in data set [7] was at least 98%. This compound came in with a chromatographic logP in data set [6] (pH 2, log P (pH 2)) of 2.56.

As for `CNC(=O)/C(=N/OC)c1c(F)cccc1Oc1cc(Oc2ccccc2Cl)ncn1` [Example 47], the pest or weed control at 100 g/ha in data set [1] is at least 82%; in data set [2], at least 97%; in data set [3], at least 86%; in data set [4] it was at least 98%. The pest or weed control at 500 g/ha in data set [5] is at least 98%. This compound came in with a chromatographic logP in data set [6] (logP) of 2.79.

Take `CNC(=O)/C(=N/OC)c1ccc(F)cc1Oc1ncnc(Oc2ccc(Cl)cc2)c1F` [Example 22]: the pest or weed control at 500 g/ha in data set [5] was at least 98%. In data set [6] (logP), this compound returned a chromatographic logP of 3.32.

As to `CNC(=O)/C(=N\OC)c1c(F)cccc1Oc1ccccc1` [Example 41], in data set [7], the pest or weed control at 500 g/ha was at least 98%. In data set [6] (logP), this compound displayed a chromatographic logP of 2.49.

With `CNC(=O)/C(=N/OC)c1ccc(F)cc1Oc1nccc(OCC(F)(F)C(F)(F)F)n1` [Example 40], the pest or weed control at 500 g/ha in data set [7] is at least 98%. This compound displayed a chromatographic logP in data set [6] (logP) of 2.87.

Take `CNC(=O)/C(=N/OC)c1ccc(F)cc1Oc1ncnc(Oc2ccccc2F)c1F` [Example 16]: in data set [5], the pest or weed control at 500 g/ha was at least 98%. For the same compound, the chromatographic logP in data set [6] (logP) came to 3.03.

For `CO/N=C(/C(=O)OC)c1c(F)cccc1Oc1ncnc(Oc2cccc(Cl)c2Cl)c1F` [Example 12], the pest or weed control at 100 g/ha in data set [1] is at least 82%; in data set [2] it was at least 97%; in data set [3], at least 86%; in data set [4], at least 98%. For the same compound, the pest or weed control at 500 g/ha in data set [7] was at least 98%. This compound showed a chromatographic logP in data set [6] (logP) of 4.16.

Regarding `CO/N=C(/C(=O)OC)c1c(F)cccc1CBr` [Example (VIII-1), methyl (2-bromomethyl-6-fluorophenyl)methoxyiminoacetate], the “log P (pH 2)” value worked out at 2.87. Also, in data set [6] (pH 2, log P (pH 2)), the chromatographic logP was 2.58.

For `CO/N=C(/C(=O)OC)c1c(F)cccc1Oc1ccccc1` [Example 3, methyl (2-fluoro-6-phenoxyphenyl)methoxyiminoacetate], the pest or weed control at 500 g/ha in data set [7] is at least 98%. Further, in data set [6] (pH 2, log P (pH 2)), the chromatographic logP amounted to 3.24.

With `CNC(=O)/C(=N/OC)c1c(F)cccc1Oc1ncnc(Oc2ccccc2Cl)c1F` [Example 2, 2-{2-[6-(2-chlorophenoxy)-5-fluoropyrimidin-4-yloxy]-6-fluorophenyl}-2-methoxyimino-N-methylacetamide], the pest or weed control at 100 g/ha was at least 82% in data set [1], at least 97% in data set [2], at least 86% in data set [3] and at least 98% in data set [4]. In data set [5], the pest or weed control at 500 g/ha is at least 98%. In data set [6] (pH 2, log P (pH 2)), this compound registered a chromatographic logP of 3.1.

Regarding `CO/N=C(\C(=O)OC)c1c(F)cccc1Oc1ccccc1` [Example 43], the pest or weed control at 500 g/ha in data set [7] is at least 98%. The chromatographic logP in data set [6] (logP) turned out to be 3.42.

For `CNC(=O)/C(=N/OC)c1c(F)cccc1Oc1nccc(OCC(F)(F)C(F)(F)F)n1` [Example 44], the pest or weed control at 500 g/ha in data set [7] was at least 98%. In data set [6] (logP), the chromatographic logP stood at 2.89.

For the compound `CO/N=C(/C(=O)OC)c1c(F)cccc1COc1ccccc1C` [Example 8, methyl (2-fluoro-6-o-tolyloxymethylphenyl)methoxyiminoacetate], the pest or weed control at 100 g/ha is at least 82% in data set [1], at least 97% in data set [2] and at least 98% in data set [4]. Also, the pest or weed control at 500 g/ha in data set [7] is at least 98%. In data set [6] (pH 2, log P (pH 2)), this compound had a chromatographic logP of 3.65.

For the compound `CNC(=O)/C(=N/OC)c1c(F)cccc1Oc1ncnc(Oc2cccc(Cl)c2Cl)c1F` [Example 48], the pest or weed control at 100 g/ha was at least 82% in data set [1], at least 97% in data set [2], at least 86% in data set [3] and at least 98% in data set [4]. Also, the pest or weed control at 500 g/ha in data set [5] was at least 98%. In addition, in data set [6] (logP), the chromatographic logP was determined as 3.5.

As to `CNC(=O)/C(=N/OC)c1c(F)cccc1Oc1cc(Oc2cccc(Cl)c2Cl)ncn1` [Example 46], the pest or weed control at 100 g/ha was at least 82% in data set [1], at least 97% in data set [2], at least 86% in data set [3] and at least 98% in data set [4]. Moreover, the pest or weed control at 500 g/ha in data set [5] is at least 98%. The compound also yielded a chromatographic logP in data set [6] (logP) of 3.23.

Take `CNC(=O)/C(=N/OC)c1ccc(F)cc1Oc1ncnc(Oc2ccccc2C)c1F` [Example 15]: the pest or weed control at 100 g/ha in data set [1] was at least 82%; in data set [2] it was at least 97%; in data set [3], at least 86%; in data set [4], at least 98%. In addition, the chromatographic logP in data set [6] (logP) was 3.2.

As to `CO/N=C(\C(=O)OC)c1c(F)cccc1Oc1ncnc(Oc2cccc(Cl)c2C)c1F` [Example 42], in data set [7], the pest or weed control at 500 g/ha is at least 98%. This compound came in with a chromatographic logP in data set [6] (logP) of 4.41.
